Calls of active or inactive are those of the source. The rule behind the calls is not given here.

For data set [1], the system named is CWR22R. Put plainly: Antiproliferative activity against AR-v7 positive human 22Rv1 cells measured after 3 days by celltiter-glo luminescence assay. The format is functional, cell-based. Particulars: Homo sapiens, 22Rv1, 72 h; read-out: IC50. Background: Cellular ATP, detected with luciferase, serves as a proxy for viable cell number.
The nature of data set [2]: Elimination rate constant in rat at 5 mg/kg, iv measured upto 24 hrs by LC-MS/MS analysis. In kind it is ADME, organism-based. Particulars: in vivo.
Data set [3] in a line: MRT (0 to t) in rat at 5 mg/kg, iv measured upto 24 hrs by LC-MS/MS analysis. The following applies: in vivo. In kind it is ADME, organism-based.
Data set [4] can be described thus: AUC (0 to t) in rat at 5 mg/kg, iv measured upto 24 hrs by LC-MS/MS analysis. In kind it is ADME, organism-based. Also on record: dose 5 mg/kg, time < 24 hrs, route iv. Particulars: in vivo.
Data set [5] in a line: Partition coefficient, logD of the compound at pH 7.4 by HPLC analysis. The format is physicochemical. Particulars: octanol/water.
The test system of data set [6] is CWR22R. Description: Downregulation of androgen receptor in human 22Rv1 cells at 0.5 to 10 uM by Western blot analysis. The format is functional, cell-based. Particulars: dose 0.5-10 µM, time 24-36 hrs, TDE = time-dependent effect.
Data set [7] concerns CWR22R. Description: Downregulation of AR-v7 level in human 22Rv1 cells at 0.5 to 10 uM by Western blot analysis. The format is functional, cell-based. The following applies: dose 0.5-10 µM, time 24-36 hrs, TDE = time-dependent effect. In general terms: A western blot detects proteins with antibodies after separation by electrophoresis.
Data set [8] has as its system CWR22R. Description: Downregulation of CDC6 gene expression in human 22Rv1 cells at 1 uM measured after 24 to 36 hrs by RNA sequencing analysis. Particulars: time 24-36 hrs. The format is functional, cell-based.
The subject of data set [9] is CWR22R. Put plainly: Downregulation of E2F gene expression in human 22Rv1 cells at 1 uM measured after 24 to 36 hrs by RNA sequencing analysis. In kind it is functional, cell-based. Particulars: time 24-36 hrs.
For data set [10], the system named is CWR22R. Description: Downregulation of RAD51D gene expression in human 22Rv1 cells at 1 uM measured after 24 to 36 hrs by RNA sequencing analysis. Particulars: time 24-36 hrs. In kind it is functional, cell-based.
For data set [11], the system named is CWR22R. Description: Downregulation of MTBP gene expression in human 22Rv1 cells at 1 uM measured after 24 to 36 hrs by RNA sequencing analysis. In kind it is functional, cell-based. The following applies: time 24-36 hrs.
Data set [12] has as its system CWR22R. Put plainly: Downregulation of MYC gene expression in human 22Rv1 cells at 1 uM measured after 24 to 36 hrs by RNA sequencing analysis. In kind it is functional, cell-based. The following applies: time 24-36 hrs.
For data set [13], the system named is CWR22R. Put plainly: Downregulation of BRCA2 gene expression in human 22Rv1 cells at 1 uM measured after 24 to 36 hrs by RNA sequencing analysis. Particulars: time 24-36 hrs. The format is functional, cell-based.

What is called IC50 is the midpoint of a concentration-inhibition curve. One may read the MRT last as a mean duration of stay, worked out from the concentration-time curve. The AUC(0-t) is exposure summed from dosing to a finite time, without extrapolation to infinity. Low readings indicate less exposure, high ones more exposure. As usually defined, the logD is lipophilicity at a set pH, counting ionised and neutral species. Read a high logD as a more lipophilic compound. On to `Clc1ccc(COn2nnnc2-c2ccc(Cl)cc2)cc1`, for which the half-inhibitory concentration (IC50) in [1] stood at 11 nM. The compound also gave a k el at 24 h in data set [2] of 0.000292 s⁻¹. This compound also gave an MRT last at 24 h in [3] of 16.3 min. The AUC(0-t) at 24 h in [4] was found to be 1080 ng·h/mL. In addition, the logD in data set [5] stood at 4.5. Moreover, the Activity entry in data set [6] and in data set [7] was “Tde” throughout. Besides, the outcome in data set [8], in data set [9], in data set [10], in data set [11], in [12] and in data set [13] was Active.

The record behind these values is ChEMBL document CHEMBL5331078, “1-Benzyloxy-5-phenyltetrazole derivatives highly active against androgen receptor-dependent prostate cancer cells” (Eur J Med Chem, 2023).
